pIC50: −log10 of the molar value.
biological target: T1, HPK1 kinase (aa1-346, Life Technologies) (Homo sapiens, UniProt Q92918); assay: HPK Kinase Activity Assay at 1 mM ATP (TR-FRET); format: biochemical; conditions: HPK1 kinase 40 nM, 0.5 μM STK1 substrate, read-out: Enzymatic activity IC50
T1 construct: HPK1 kinase (aa1-346, Life Technologies); purchased Life Technologies
T1 sequence (Q92918 1-346): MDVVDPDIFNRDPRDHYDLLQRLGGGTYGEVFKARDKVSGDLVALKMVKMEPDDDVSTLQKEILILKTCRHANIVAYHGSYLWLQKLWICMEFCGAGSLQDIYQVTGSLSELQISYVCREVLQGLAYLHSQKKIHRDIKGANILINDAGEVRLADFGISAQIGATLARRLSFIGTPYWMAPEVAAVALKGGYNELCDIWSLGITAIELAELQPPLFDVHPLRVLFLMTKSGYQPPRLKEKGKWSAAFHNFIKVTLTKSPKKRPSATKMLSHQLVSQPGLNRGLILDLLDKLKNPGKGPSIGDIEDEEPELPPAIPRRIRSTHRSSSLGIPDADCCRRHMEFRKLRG
Protocol: HPK Kinase Activity Assay at 1 mM ATP
Compounds disclosed herein were tested for inhibition of HPK1 kinase (aa1-346, Life Technologies) activity in assays based on the time-resolved fluorescence-resonance energy transfer (TR-FRET) methodology. The assays were carried out in 384-well low volume black plates in a reaction mixture containing HPK1 kinase (40 nM), 1 mM ATP, 0.5 μM STK1 substrate and 0-10 μM compound in buffer containing 50 mM HEPES, 0.01% BSA, 0.1 mM Orthovanadate, 10 mM MgCl2, 1 mM DTT, pH=7.0, 0.005% Tween-20. The kinase was incubated with the compounds disclosed herein or DMSO for 60 minutes at room temperature and the reaction was initiated by the addition of ATP and STK1 substrate. After reaction at room temperature for 120 minutes, an equal volume of stop/detection solution was added according to the manufacture's instruction (CisBio). The stop/detection solution contained STK Antibody-Cryptate and XL665-conjugated streptavidin in Detection Buffer. The TR-FRET signals (ratio of fluorescence emission at 665 nm over emission at 620 nm with excitation at 337 nm wavelength) were recorded on a PHERAstar FS plate reader (BMG Labtech). Phosphorylation of STK1 substrate led to the binding of STK Antibody-Cryptate to the biotinylated STK1 substrate, which places fluorescent donor (Eu^3+ crypate) in close proximity to the accepter (Streptavidin-XL665), thus resulting in a high degree of fluorescence resonance energy transfer. The inhibition of HPK1 in presence of increasing concentrations of compounds was calculated based on the ratio of fluorescence at 665 nm to that at 620 nm. The IC50 for each compound was derived from fitting the data to the four-parameter logistic equation by Graphpad Prism software.

Row | Compound | pIC50
1 | Cc1cc(-c2cnc3[nH]cc(-c4ccc(C(=O)N(C)C)cc4)c3c2)cc2c1N1CCN(C)CC1CC2 (stereo not shown) [Example 1, 4-(5-(3,10-dimethyl-2,3,4,4a,5,6-hexahydro-1H-pyrazino[1,2-a]quinolin-8-yl)-1H-pyrrolo[2,3-b]pyridin-3-yl)-N,N-dimethylbenzamide] | 7.51
2 | Cc1cc(-c2c[nH]c3ncc(-c4cc(C)c5c(c4)CC[C@H]4CN(C)CCN54)nc23)ccc1C(=O)N1CC2(COC2)C1 [Example 8B, (S)-(4-(2-(3,10-dimethyl-2,3,4,4a,5,6-hexahydro-1H-pyrazino[1,2-a]quinolin-8-yl)-5H-pyrrolo[2,3-b]pyrazin-7-yl)-2-methylphenyl)(2-oxa-6-azaspiro[3.3]heptan-6-yl)methanone] | 7.21
3 | Cc1cc(-c2c[nH]c3ncc(-c4cc(C)c5c(c4)CC[C@@H]4CN(C)CCN54)nc23)ccc1C(=O)N(C)CC(C)(C)O [Example 13A, (R)-4-(2-(3,10-dimethyl-2,3,4,4a,5,6-hexahydro-1H-pyrazino[1,2-a]quinolin-8-yl)-5H-pyrrolo[2,3-b]pyrazin-7-yl)-N-(2-hydroxy-2-methylpropyl)-N,2-dimethylbenzamide] | 7.00
4 | Cc1cc(-c2cnc3[nH]cc(-c4ccc(C(=O)N5CC6(COC6)C5)cc4)c3n2)cc2c1N1CCN(C)C[C@H]1CC2 [Example 9A, (R)-(4-(2-(3,10-dimethyl-2,3,4,4a,5,6-hexahydro-1H-pyrazino[1,2-a]quinolin-8-yl)-5H-pyrrolo[2,3-b]pyrazin-7-yl)phenyl)(2-oxa-6-azaspiro[3.3]heptan-6-yl)methanone] | 7.77

Continued by rising pIC50, values first:

Row | pIC50 | Compound
5 | 7.02 | Cc1cc(-c2c[nH]c3ncc(-c4cc(C)c5c(c4)CC[C@H]4CN(C)CCN54)nc23)ccc1C(=O)N(C)CC(C)(C)O [Example 13B, (S)-4-(2-(3,10-dimethyl-2,3,4,4a,5,6-hexahydro-1H-pyrazino[1,2-a]quinolin-8-yl)-5H-pyrrolo[2,3-b]pyrazin-7-yl)-N-(2-hydroxy-2-methylpropyl)-N,2-dimethylbenzamide]
6 | 7.24 | Cc1cc(-c2c[nH]c3ncc(-c4cc(C)c5c(c4)CC[C@@H]4CN(C)CCN54)nc23)ccc1C(=O)N1CC2(COC2)C1 [Example 8A, (R)-(4-(2-(3,10-dimethyl-2,3,4,4a,5,6-hexahydro-1H-pyrazino[1,2-a]quinolin-8-yl)-5H-pyrrolo[2,3-b]pyrazin-7-yl)-2-methylphenyl)(2-oxa-6-azaspiro[3.3]heptan-6-yl)methanone]
7 | 7.66 | Cc1cc(-c2cnc3[nH]cc(-c4ccc(C(=O)N(C)C)cc4)c3n2)cc2c1N1CCN(C)C[C@@H]1CC2 [Example 7B, (S)-4-(2-(3,10-dimethyl-2,3,4,4a,5,6-hexahydro-1H-pyrazino[1,2-a]quinolin-8-yl)-5H-pyrrolo[2,3-b]pyrazin-7-yl)-N,N-dimethylbenzamide]
8 | 7.68 | Cc1cc(-c2cnc3[nH]cc(-c4ccc(C(=O)N(C)C[C@@H](C)O)cc4)c3c2)cc2c1N1CCN(C)C[C@H]1CC2 [Example 3A, 4-(5-((R)-3,10-dimethyl-2,3,4,4a,5,6-hexahydro-1H-pyrazino[1,2-a]quinolin-8-yl)-1H-pyrrolo[2,3-b]pyridin-3-yl)-N—((R)-2-hydroxypropyl)-N-methylbenzamide]
9 | 7.77 | Cc1cc(-c2cnc3[nH]cc(-c4ccc(C(=O)N(C)C[C@@H]5CCOC5)cc4)c3n2)cc2c1N1CCN(C)C[C@@H]1CC2 [Example 10B, 4-(2-((S)-3,10-dimethyl-2,3,4,4a,5,6-hexahydro-1H-pyrazino[1,2-a]quinolin-8-yl)-5H-pyrrolo[2,3-b]pyrazin-7-yl)-N-methvl-N—(((S)-tetrahydrofuran-3-yl)methyl)benzamide]
10 | 7.85 | Cc1cc(-c2cnc3[nH]cc(-c4ccc(C(=O)N(C)C[C@H](C)O)cc4)c3c2)cc2c1N1CCN(C)C[C@H]1CC2 [Example 2A, 4-(5-((R)-3,10-dimethyl-2,3,4,4a,5,6-hexahydro-1H-pyrazino[1,2-a]quinolin-8-yl)-1H-pyrrolo[2,3-b]pyridin-3-yl)-N—((S)-2-hydroxypropyl)-N-methylbenzamide]

Reference: patent publication US12459958B2, “Tricyclic compounds as HPK1 inhibitor and the use thereof” (BEIGENE, LTD., priority 2019, dated 2025)
